Values belong to the molecule of their own block, whether it stands above or below them. Ends that are not written are not given here. Peptide text beside a SMILES is read from it. * marks the point of attachment. Palmitoyl = CCCCCCCCCCCCCCCC(=O)*
Tests used:
[1] = test system: atherosclerotic LDLR KO mice; experiment: In vivo proof of concept: PA nanofiber localization in aortic root; parameters: species or system mouse; details: 24 h after intravenous injection, high fat diet 14 weeks, 6 mg kg-1 PA
Method: Mouse Model of Atherosclerosis and In Vivo Proof of Concept: LDLR-KO mice were fed a high fat “Western” diet (Teklad TD.88137) starting at 4 weeks of age. This diet consisted of 20% fat, 0.2% cholesterol, and 34% high sucrose. LDLR-KO mice fed this diet typically develop severe hypercholesterolemia (>800 mg/dL) and hypertriglyceridemia (>300 mg/dL) after only 2 weeks, and by 12 weeks on the high fat diet, atherosclerotic lesions are detected in the aortic root and aortic arch. After 14 weeks on the high fat diet, mice received intravenous injections of PA nanofibers dissolved in PBS (dorsal penile vein in males) under sterile conditions. Mice were briefly anesthetized for injection with inhaled isoflurane. After injection, mice were monitored and allowed to recover from anesthesia in a heated oxygen chamber. […] PA fluorescence was assessed with the HE CY3 filter (Zeiss filter #43) using excitation and emission wavelengths of 550-575 nm and 605-670 nm, respectively. Nuclear staining was performed with DAPI (4′,6-Diamidino-2-Phenylindole, Dilactate, ThermoFisher, Chicago, IL), and assessed with the DAPI filter (Zeiss filter #49) using excitation and emission wavelengths of 365-395 and 445-450 nm, respectively. Tissue autofluorescence was assessed with the green fluorescent protein filter (Zeiss filter #38) using excitation and emission wavelengths of 470-495 and 525-550 nm, respectively. […]

[2] = TEM characterization of PA nanofibers for diameter and length (Example 3); type: physicochemical
Method: Samples at 1 mM in PBS were prepared for TEM by plating on copper supports covered with thin carbon foil 400-mesh that were treated with glow discharge. […] Due to the overlapping fibers, automated tools including FiberApp could not be used to analyze the nanofibers. Instead, the TEM images were analyzed manually for nanofiber diameter and length using ImageJ software. Cryogenic TEM of samples was also performed using a JEOL 1230 at 100 kV accelerating voltage and Gatan 831 CCD camera. […] Samples were prepared at 1 mM in PBS blotted once for 3 seconds before plunging into liquid ethane using a Vitrobot Mark III (FEI) vitrification robot.

LDLR KO mice [3] = experiment: Targeting of atherosclerosis by IV injected ApoA1 PA nanofibers (Example 3); type: in vivo, mouse; details: within 24 hours after injection, confocal, Alexa Fluor 546
Method: (§1) Mouse model of atherosclerosis: To study atherosclerosis, the LDLR KO mouse was used. LDLR KO mice are fed a high fat “western” diet (Teklad TD.88137) starting at 4 weeks of age. This diet consists of 20% fat, 0.2% cholesterol, and 34% high sucrose. LDLR KO mice fed this diet typically develop severe hypercholesterolemia (>800 mg/dL) and hypertriglyceridemia (>300 mg/dL) after only 2 weeks. By 12 weeks on the high fat diet, atherosclerotic lesions are detected in the aortic root and aortic arch on cryosections stained with Oil Red O (Sigma). Atherosclerosis was quantified in the aortic root as a percentage of the aortic root by taking the atherosclerotic area divided by the total aortic root area. Measurements were made with ImageJ software. All protocols for the animal model and procedures in this manuscript were approved by Northwestern University's Institutional Animal Care and Use Committee.
Injection of PA nanofibers: PA nanofibers were dissolved at 2-4 mg/mL concentration in room temperature phosphate buffered saline (PBS). After 14 weeks on the high fat diet, mice received intravenous injections of PA nanofiber dissolved in PBS (dorsal penile vein in males, retro-orbital injection in females) using a 31 G hypodermic insulin needle on a 0.3 mL syringe under sterile conditions and magnification (NIKON SMZ 645 Zoom Stereomicroscope). Mice were briefly anesthetized for injection with inhaled isoflurane. Mice were monitored and allowed to recover from anesthesia in a heated oxygen chamber.
Dose and concentration study: To determine the optimum concentration for targeting efficacy and safety, LDLR KO mice fed the high fat diet for 14 weeks were injected with PA nanofiber at concentrations of 1 mg/mL, 2 mg/mL, and 4 mg/mL at 8 mg/kg in PBS. Similarly, to determine the optimum dose for targeting efficacy and safety, LDLR KO mice fed the high fat diet for 14 weeks were injected at PA nanofiber doses of 8 mg/kg, 6 mg/kg, 4 mg/kg, 3.3 mg/kg, and 1.7 mg/kg at 2 mg/mL in PBS. Safety, optimum dose, and concentration for targeting was assessed by survival of the animal and fluorescent pixel quantification in the aortic root, liver, lungs, kidneys, and spleen.
(§2) Tissue processing and imaging: Mice were sacrificed and euthanized under inhaled isoflurane anesthesia by diaphragm disruption and exsanguination. Phlebotomy was performed through direct right ventricular cardiac puncture using a 1 mL syringe and 25 G needle. Perfusion was performed through left ventricular cardiac puncture with 10 mL PBS and 10 mL 10% sucrose solution. The lungs, liver, spleen, kidney, aortic root, aortic arch, and descending aorta were harvested and stored in 10% sucrose for 20 minutes. Organs and vessels were then flash-frozen in Optimal Cutting Temperature embedding medium 4583 (Tissue-Tek®) with liquid nitrogen. Frozen specimens were stored at −80° C. and cryosectioned at […]. Confocal microscopy was performed on a Nikon AIR microscope. Two sets of images were acquired with a 10× Plan Fluor NA 0.3 objective. PAs were identified through quantification of the Alexa Fluor® 546 conjugated dye with 561 nm excitation and a 600/50 nm emission filter.
Images were acquired with spectral detection and spectrally unmixed to accurately separate green autofluorescence from the red Alexa Fluor® 546 signal. Brightfield and fluorescent microscopy were performed using a Zeiss Axio Imager.A2 microscope with AxioVision software (release 4.8.2, 06-2010). All confocal and fluorescent sections were mounted with ProGold Diamond mounting media (Sigma). Slides were stained with Oil Red O to image and quantify atherosclerosis under brightfield microscopy. The elastic laminae were identified using the green fluorescent protein (GFP) filter with an exposure time of 3500 ms under 5× magnification. Nanofibers were identified in the aortic root by presence of Alexa Fluor® 546 on the Cy3 filter under 5-10× magnification, and in the internal organs under 20× magnification. […]

LDLR KO mice [4] = experiment: Atherosclerosis treatment study; type: in vivo, mouse
Method: as §1
(§3) Blood samples were collected at the end of the treatment study for toxicology analysis. Mice were euthanized three days after their 16th treatment.
as §2
Images were acquired with spectral detection and spectrally unmixed to accurately separate green autofluorescence from the red Alexa Fluor® 546 signal. Brightfield and fluorescent microscopy were performed using a Zeiss Axio Imager.A2 microscope with AxioVision software (release 4.8.2, 06-2010). All confocal and fluorescent sections were mounted with ProGold Diamond mounting media (Sigma). Slides were stained with Oil Red O to image and quantify atherosclerosis under brightfield microscopy. The elastic laminae were identified using the green fluorescent protein (GFP) filter with an exposure time of 3500 ms under 5× magnification. Nanofibers were identified in the aortic root by presence of Alexa Fluor® 546 on the Cy3 filter under 5-10× magnification, and in the internal organs under 20× magnification. Fluorescent pixel quantification in the aortic root and within organs was performed with ImageJ software.
(§4) Statistics: The effect of treatments and sex on atherosclerosis progression in mice was analyzed using one- or two-factor analysis of variance (ANOVA) followed by a post-hoc student's t-test. The toxicological effects of treatments were also analyzed using two-factor ANOVA and a post-hoc student's t-test. Toxicological effects of treatments on liver proteins AST, ALT, and ALP were further analyzed using ordinal logistic regression models of likelihood ratio tests, followed by a post-hoc Wald test

[5] = Treatment study serum chemistry (toxicology analysis); type: in vivo, mouse; details: mouse, in vivo
Method: as §3, §2, §4

[6] = ROS-Ac2-26 PA cleavage assay with SIN-1; type: physicochemical
Method: ROS-Ac2-26 and MMP-Ac2-26 PA cleavage assays: To examine ROS-mediated cleavage, 3-morpholinosydnonimine hydrochloride (SIN-1, Sigma-Aldrich or Abcam) was used. ROS-Ac2-26 PAs were reconstituted to 0.5 mM in phosphate buffer and treated with 100 μM SIN-1 for 24 hours at 37° C. For MMP2/9-mediated cleavage, human recombinant MMP2 (R&D systems, carrier-free) was used, activated with freshly prepared 1 mMp-aminophenylmercuric acetate (APMA, Sigma-Aldrich) for one hour at 37° C. The APMA disrupts the cysteine-zinc bond in MMP2 responsible for enzyme latency by liberation of the sulfhydryl group. 10% MMP-Ac2-26 PA co-assemblies were prepared at 0.5 mM in a cleavage buffer containing 50 mM tricine, 50 mM NaCl, 50 μM ZnCl2, and 10 mM CaCl2) at pH 7.4, and treated with 40 nM human recombinant MMP2 for 24 hours at 37° C. At the end of each time point, the samples were stored at −20° C., effectively stopping the cleavage reactions. Samples were analyzed at room temperature, 0.04-0.3 mg/mL with 0.1% NH4OH using a ThermoFisher Q Exactive HIF-X (ThermoFisher, Bremen, Germany) mass spectrometer coupled with a Waters Acquity H-class liquid chromatograph system. […] All measurements were recorded at a resolution setting of 120,000. […] Injection volume for all samples was […]. Data was analyzed on Xcalibur (ThermoFisher, Breman, Germany).

[7] = read-out: dissociation constant for PEIPC; cited from earlier work
[8] = 30 measurements from three images
[9] = 30 measurements from three images, listed as Ser PA
[10] = 30 measurements from three images, listed as scrambled

Diameter (nm) Median [2, 8]: 14.2 nm
Length (nm) Average [2, 8]: 403.8 nm
Diameter (nm) Average [2, 9]: 13.8 nm
Length (nm) Median [2, 9]: 257.6 nm
Diameter (nm) Average [2, 10]: 13.8±2.4 nm
Length (nm) Median [2, 10]: 258 nm
Molecule: CCCCCCCCCCCCCCCC(=O)N[C@H](C(=O)N[C@H](C(=O)N[C@@H](C)C(=O)N[C@@H](C)C(=O)N[C@@H](CCC(=O)O)C(=O)N[C@@H](CCC(=O)O)C(=O)N[C@@H](CS)C(=O)N[C@@H](CC(=O)O)C(=O)N[C@@H](Cc1c[nH]c2ccccc12)C(=O)N[C@@H](Cc1ccccc1)C(=O)N[C@@H](C)C(=O)N[C@@H](CCCCN)C(=O)N[C@@H](CC(=O)O)C(=O)N[C@@H](Cc1ccc(O)cc1)C(=O)N[C@@H](Cc1ccccc1)C(=O)N[C@@H](CCCCN)C(=O)N[C@@H](CCCCN)C(=O)N[C@@H](C)C(=O)N[C@@H](Cc1ccccc1)C(=O)N[C@H](C(=O)N[C@@H](CCC(=O)O)C(=O)N[C@@H](CCC(=O)O)C(=O)N[C@@H](Cc1ccccc1)C(=O)N[C@@H](C)C(=O)N[C@@H](CCCCN)C(N)=O)C(C)C)C(C)C)C(C)C [Scr PA] (Palmitoyl-VVAAEECDWFAKDYFKKAFVEEFAK-NH2)
localization of nanofibers to areas of atherosclerotic plaque in the aortic root [1]: does not reveal evidence of nanofiber localization
localization to areas of atherosclerosis (LDLR KO mice [3]): did not localize to areas of atherosclerosis
atherosclerosis progression in comparison to the PBS control (LDLR KO mice [4]; both sexes, twice per week over eight weeks, percent of atherosclerosis in the aortic root): significantly decreased
reduction of atherosclerosis in females in comparison to males (LDLR KO mice [4]; mouse, in vivo): greater effects upon reducing atherosclerosis in females
AST levels in comparison to the PBS control [5]: no significant differences
Creatine [5]: 0 U/L
Sodium [5]: 138 mmol/L
Total Protein [5]: 5.4 g/dL
aspartate aminotransferase (AST) in the blood in comparison to PBS [5]: significantly elevated levels of aspartate aminotransferase (AST)

Ac2-26 release from PA ([6]; 100 μM SIN-1, 24 hours, 37° C.): released Ac2-26
Molecule: C16-V2A2 (SEQ ID NO: 8)-E2-KP5K (SEQ ID NO: 10)-AMVSEFLKQAWFIENEEQEYVQTVK SEQ ID NO: 7-NH2 [ROS-Ac2-26 PA]
Ac2-26 cleavage without SIN-1 treatment ([6]; untreated): showed the presence of cleaved Ac2-26 peptide

Molecule: DWFKAFYDKVAEKFKEAF (SEQ ID NO: 2)-NH2 (DWFKAFYDKVAEKFKEAF-NH2) [4F, 18 amino acid ApoA1 mimetic peptide]
nanofiber formation [2]: No nanofiber formation
localization to areas of atherosclerosis (LDLR KO mice [3]): localized to areas of atherosclerosis
Kd [7]: 1e-05 µM

Molecule: native ApoA1: main protein component of high density lipoprotein (HDL) cholesterol
Kd [7]: 50 µM
